Reference: PubChem BioAssay AID330 (DTP/NCI, 2004)
“And” between values parts separate entries of the source, which are not always exact repeats. Identical values can stand only once. Inconclusive results and toxic doses are left out. Peptide text beside a SMILES is read from it. * marks the point of attachment. Cbz = O=C(OCc1ccccc1)*; βAla = NCCC(=O)O

Test system: P388 leukemia ip, CD2F1 mice, survival T/C
Test: NCI In Vivo Anticancer Drug Screen. Data for tumor model P388 Leukemia (intraperitoneal) in CD2F1 (CDF1) mice
Conditions: endpoint: median survival time, higher = longer survival
Outline: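 Mice carrying the transplanted tumor received test compound or vehicle. Survival was recorded in each group, and the value is the treated-group measurement divided by that of the vehicle-treated control group.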

[1] = dose: 50.0 mg/kg/injection, schedule: Q01DX009 (ip), vehicle: saline with Tween-80
[2] = dose: 50.0 mg/kg/injection, schedule: Q01DX009 (ip), vehicle: saline
[3] = dose: 200.0 mg/kg/injection, schedule: Q01DX009 (ip), vehicle: saline
[4] = dose: 50.0 mg/kg/injection, schedule: Q01DX009 (ip), vehicle: Klucel (hydroxypropylcellulose) (HPC)
[5] = dose: 100.0 mg/kg/injection, schedule: Q01DX009 (ip), vehicle: Klucel (hydroxypropylcellulose) (HPC)
[6] = dose: 200.0 mg/kg/injection, schedule: Q01DX009 (ip), vehicle: Klucel (hydroxypropylcellulose) (HPC)
[7] = dose: 100.0 mg/kg/injection, schedule: Q01DX009 (ip), vehicle: saline with Tween-80
[8] = dose: 60.0 mg/kg/injection, schedule: Q01DX005 (ip), vehicle: Klucel (hydroxypropylcellulose) (HPC)
[9] = dose: 120.0 mg/kg/injection, schedule: Q01DX005 (ip), vehicle: Klucel (hydroxypropylcellulose) (HPC)
[10] = dose: 240.0 mg/kg/injection, schedule: Q01DX005 (ip), vehicle: Klucel (hydroxypropylcellulose) (HPC)
[11] = dose: 60.0 mg/kg/injection, schedule: Q01DX005 (ip), vehicle: saline with Tween-80
[12] = dose: 120.0 mg/kg/injection, schedule: Q01DX005 (ip), vehicle: saline with Tween-80
[13] = dose: 240.0 mg/kg/injection, schedule: Q01DX005 (ip), vehicle: saline with Tween-80
[14] = dose: 100.0 mg/kg/injection, schedule: Q04DX003 (ip), vehicle: Klucel (hydroxypropylcellulose) (HPC)
[15] = dose: 200.0 mg/kg/injection, schedule: Q04DX003 (ip), vehicle: Klucel (hydroxypropylcellulose) (HPC)
[16] = dose: 400.0 mg/kg/injection, schedule: Q04DX003 (ip), vehicle: Klucel (hydroxypropylcellulose) (HPC)
[17] = dose: 100.0 mg/kg/injection, schedule: Q01DX009 (ip), vehicle: saline
[18] = dose: 25.0 mg/kg/injection, schedule: Q01DX009 (ip), vehicle: Klucel (hydroxypropylcellulose) (HPC)

For `NNC(=O)C(NC=O)C(N)=O` (configuration not stated), the T/C (dose: 12.5 mg/kg/injection, schedule: Q01DX009 (ip), vehicle: saline with Tween-80) was 107 % of control, the T/C (dose: 25.0 mg/kg/injection, schedule: Q01DX009 (ip), vehicle: saline with Tween-80) was 100 % of control and the T/C [1] was 98 % of control. The T/C [2] was 88 % of control and the T/C [3] was 92 % of control.
For `O=C(O)CNC(=O)CNC(=O)CCNC(=O)OCc1ccccc1` ({Cbz-βAla}-Gly-Gly-OH), the T/C (dose: 50.0 mg/kg/injection, schedule: Q01DX005 (ip), vehicle: saline with Tween-80) was 101 % of control, the T/C (dose: 100.0 mg/kg/injection, schedule: Q01DX005 (ip), vehicle: saline with Tween-80) was 97 % of control and the T/C (dose: 200.0 mg/kg/injection, schedule: Q01DX005 (ip), vehicle: saline with Tween-80) was 108 % of control.
For `CS(=O)(=O)/C=C/c1cc2ccccc2[nH]1`, the T/C [4] was 89 % of control, the T/C [5] was 101 % of control and the T/C [6] was 104 % of control.
For `COc1ccc(C2=C(Cl)C(=O)N(c3ccc(OC)cc3OC)C(=O)C2(Cl)Cl)cc1`, the T/C (dose: 100.0 mg/kg/injection, schedule: Q04DX002 (ip), vehicle: Klucel (hydroxypropylcellulose) (HPC)) was 98 % of control, the T/C (dose: 200.0 mg/kg/injection, schedule: Q04DX002 (ip), vehicle: Klucel (hydroxypropylcellulose) (HPC)) was 101 % of control and the T/C (dose: 400.0 mg/kg/injection, schedule: Q04DX002 (ip), vehicle: Klucel (hydroxypropylcellulose) (HPC)) was 117 % of control.
In the case of `CCCc1cc(-c2cccc3ccccc23)c(CCC)c2c1-c1cccc3cccc-2c13`, the T/C [1] was 97 % of control and the T/C [7] was 96 % of control.
`Cc1cc2c(=O)cc(-c3ccc([N+](=O)[O-])cc3)oc2c(C#N)c1C` was tested, and the T/C [8] was 92 % of control, the T/C [9] was 94 % of control and the T/C [10] was 87 % of control.
In the case of `O=C1C=CC(=NS(=O)(=O)c2ccccc2)C=C1`, the T/C (dose: 12.5 mg/kg/injection, schedule: Q01DX001 (ip), vehicle: other) was 100 % of control, the T/C (dose: 25.0 mg/kg/injection, schedule: Q01DX001 (ip), vehicle: other) was 100 % of control and the T/C (dose: 50.0 mg/kg/injection, schedule: Q01DX001 (ip), vehicle: other) was 100 % of control.
`O=[N+]([O-])c1ccc(/C=C/C(CCN2CCOCC2)=N/O)cc1` was tested, and the T/C [11] was 104 % of control, the T/C [12] was 99 % of control and the T/C [13] was 103 % of control.
`CC(=O)SCC(C)CCl` (configuration not stated) was tested, and the T/C (dose: 100.0 mg/kg/injection, schedule: Q04DX003 (ip), vehicle: saline with Tween-80) was 100 % of control and the T/C (dose: 200.0 mg/kg/injection, schedule: Q04DX003 (ip), vehicle: saline with Tween-80) was 109 % of control.
`COC(=O)/C=C/COc1ccccc1C(=O)NCc1ccc([N+](=O)[O-])cc1` was tested, and the T/C [14] was 109 % of control, the T/C [15] was 108 % of control and the T/C [16] was 109 % of control.
In the case of `O=C(N/N=C/c1cc(Br)cc(Br)c1[O-])c1ccccc1.O=C(N/N=C/c1cc(Br)cc(Br)c1[O-])c1ccccc1.[Fe+2]`, the T/C (dose: 100.0 mg/kg/injection, schedule: Q01DX001 (ip), vehicle: saline with Tween-80) was 86 % of control, the T/C (dose: 200.0 mg/kg/injection, schedule: Q01DX001 (ip), vehicle: saline with Tween-80) was 86 % of control and the T/C (dose: 400.0 mg/kg/injection, schedule: Q01DX001 (ip), vehicle: saline with Tween-80) was 93 % of control.
For `[Cl][Pt+2][Cl].[NH-]C1CCCC1.[NH-]C1CCCC1`, the T/C (dose: 20.0 mg/kg/injection, schedule: Q01DX009 (ip), vehicle: Klucel (hydroxypropylcellulose) (HPC)) was 156 % of control and 169 % of control, the T/C (dose: 40.0 mg/kg/injection, schedule: Q01DX009 (ip), vehicle: Klucel (hydroxypropylcellulose) (HPC)) was 156 % of control and 168 % of control and 175 % of control and the T/C (dose: 80.0 mg/kg/injection, schedule: Q01DX009 (ip), vehicle: Klucel (hydroxypropylcellulose) (HPC)) was 179 % of control and 193 % of control and 220 % of control. The T/C (dose: 160.0 mg/kg/injection, schedule: Q01DX009 (ip), vehicle: Klucel (hydroxypropylcellulose) (HPC)) was 182 % of control and 233 % of control and the T/C (dose: 320.0 mg/kg/injection, schedule: Q01DX009 (ip), vehicle: Klucel (hydroxypropylcellulose) (HPC)) was 110 % of control and 186 % of control and 229 % of control.
`CC(=O)NC(CS)C(=O)O` (configuration not stated) was tested, and the T/C [2] was 111 % of control and 88 % of control, the T/C [17] was 103 % of control and 104 % of control and 111 % of control and the T/C [3] was 99 % of control (2×) and 109 % of control.
`O=S(=O)(/C=C/c1ccccc1)OCCCl` was tested, and the T/C [1] was 103 % of control, the T/C [7] was 107 % of control and the T/C (dose: 200.0 mg/kg/injection, schedule: Q01DX009 (ip), vehicle: saline with Tween-80) was 107 % of control.
With `O=C(O)c1cc2c3ccccc3sc2c2ccccc12` the T/C (dose: 30.0 mg/kg/injection, schedule: Q01DX005 (ip), vehicle: Klucel (hydroxypropylcellulose) (HPC)) was 93 % of control, the T/C [8] was 93 % of control and the T/C [9] was 90 % of control. The T/C [10] was 90 % of control.
`O=C1CSC(=S)N1c1ccc(Br)cc1` was tested, and the T/C [4] was 106 % of control, the T/C [5] was 105 % of control and the T/C [6] was 108 % of control.
In the case of `Nc1nc([Se])c2ncn(C3CC(O)C(CO)O3)c2n1` (configuration not stated), the T/C (dose: 12.5 mg/kg/injection, schedule: Q01DX009 (ip), vehicle: Klucel (hydroxypropylcellulose) (HPC)) was 160 % of control, the T/C [18] was 169 % of control and 173 % of control and the T/C [4] was 112 % of control.
With `C=CCC(N)C(=O)O` (configuration not stated) the T/C (dose: 50.0 mg/kg/injection, schedule: Q01DX005 (ip), vehicle: saline) was 103 % of control and the T/C (dose: 100.0 mg/kg/injection, schedule: Q01DX005 (ip), vehicle: saline) was 97 % of control.
With `O=C(Nc1cc(-c2ccccc2)[nH]n1)c1ccccc1Cl` the T/C [11] was 100 % of control, the T/C [12] was 93 % of control and the T/C [13] was 93 % of control.
For `CN(C)P(N)(N)=O`, the T/C [17] was 105 % of control, the T/C [3] was 95 % of control and the T/C (dose: 400.0 mg/kg/injection, schedule: Q01DX009 (ip), vehicle: saline) was 100 % of control.
For `CC(C)N=C(NC(C)C)c1ccc(NC(=O)Nc2ccc(NC(=O)Nc3ccc(C(=NC(C)C)NC(C)C)cc3)cc2)cc1`, the T/C (dose: 1.56 mg/kg/injection, schedule: Q01DX005 (ip), vehicle: saline with Tween-80) was 111 % of control, the T/C (dose: 3.13 mg/kg/injection, schedule: Q01DX005 (ip), vehicle: saline with Tween-80) was 108 % of control and 113 % of control and the T/C (dose: 6.25 mg/kg/injection, schedule: Q01DX005 (ip), vehicle: saline with Tween-80) was 104 % of control and 124 % of control.
In the case of `Cc1cc2c(C(C)C)c(O)c(O)cc2c(O)c1-c1c(C)cc2c(C(C)C)c(O)c(O)cc2c1O`, the T/C (dose: 12.5 mg/kg/injection, schedule: Q04DX003 (ip), vehicle: saline with Tween-80) was 95 % of control, the T/C (dose: 25.0 mg/kg/injection, schedule: Q04DX003 (ip), vehicle: saline with Tween-80) was 100 % of control and the T/C (dose: 50.0 mg/kg/injection, schedule: Q04DX003 (ip), vehicle: saline with Tween-80) was 104 % of control.
For `O=P1(Oc2ccc(N=C=S)cc2)OCCCO1`, the T/C [8] was 102 % of control, the T/C [9] was 103 % of control and the T/C [10] was 104 % of control.
`O=S=C(c1ccccc1)N(Cc1ccccc1)Cc1ccccc1` was tested, and the T/C (dose: 25.0 mg/kg/injection, schedule: Q01DX009 (ip), vehicle: saline) was 96 % of control, the T/C [2] was 97 % of control and the T/C [17] was 97 % of control.
For `CC(=O)CC(C)(C)C(C#N)c1ccccc1` (configuration not stated), the T/C [14] was 99 % of control, the T/C [15] was 115 % of control and the T/C [16] was 98 % of control.
`O=C1C=C(Br)C(=O)C(Br)=C1` was tested, and the T/C (dose: 1.56 mg/kg/injection, schedule: Q01DX009 (ip), vehicle: distilled water + Tween-80) was 101 % of control, the T/C (dose: 3.13 mg/kg/injection, schedule: Q01DX009 (ip), vehicle: distilled water + Tween-80) was 95 % of control and the T/C (dose: 6.25 mg/kg/injection, schedule: Q01DX009 (ip), vehicle: distilled water + Tween-80) was 100 % of control.
In the case of `C[O+]=c1ccc2ccc(-c3ccccc3)sc-2c1`, the T/C [8] was 106 % of control and the T/C [9] was 105 % of control.
With `NC(=Nc1ccccc1)SCCCCCCSC(N)=Nc1ccccc1` the T/C [18] was 100 % of control, the T/C [4] was 102 % of control and the T/C [5] was 100 % of control.
For `COC(=O)c1nc(=S)[nH]c(C(=O)OC)c1C(=O)c1cccc(O)c1`, the T/C (dose: 60.0 mg/kg/injection, schedule: Q01DX005 (ip), vehicle: suspension in saline) was 95 % of control and the T/C (dose: 120.0 mg/kg/injection, schedule: Q01DX005 (ip), vehicle: suspension in saline) was 90 % of control.
